Data from US11702400B2, “Salt types, crystal forms, and preparation methods for benzopyrazole compounds as RHO kinase inhibitors” (MEDSHINE DISCOVERY INC., priority 2019, dated 2023).

Experiments:
[1] = Solid stability test of the crystal form B of the compound of formula (II-2) (XRPD); type: physicochemical
Method: About 10 mg of the crystal form was accurately weighed and added to a dry and clean glass flask, spread into a thin layer, covered with aluminum foil, pierced small holes and placed under the influence factor test conditions and under accelerated conditions. Samples placed under illumination (visible light 1200000 Lux, UV 200 W) conditions were placed in clear glass flasks, fully exposed, and samples used for XRPD detection were placed separately.
After the samples were removed at the time point, the cover was covered, and the flask was sealed using sealing film, and stored in −20° C. refrigerator. When preparing the sample, the sample was removed from the refrigerator, restored to room temperature; 80% ACN (10 mL) was added, and the sample was dissolved by sonication for 2 min to obtain a solution with a concentration of about 1 mg/mL, then the liquid phase was used for injection analysis, and the detection results were compared with the initial detection results on day 0.
Preparation of standard solution on day 0: About 10 mg of the crystal form was weighed and added to a 10 mL volumetric flask, dissolved with 80% ACN and the volume was fixed to the scale.

[2] = Pharmacokinetic study of the racemate of the compound of formula (I) in SD rats; type: in vivo
Method: 2.1 Pharmacokinetic Study of the Racemate of the Compound of Formula (I) in SD Rats
Experimental purpose: To study the pharmacokinetics of the compounds in SD rats
Experimental material: SD rats (male, 7-10 weeks old, WTLH/SLAC)
Experimental procedure: The pharmacokinetic characteristics of the compounds were tested in rodents after intravenous (IV) and oral (PO) administration using standard protocols. The candidate compounds were prepared into 0.2 mg/mL clarified solutions and administrated to rats for single intravenous injection and oral administration. The solvent for both intravenous and oral administration was 5% DMSO/95% (10% hydroxypropyl β-cyclodextrin) aqueous solution. […] Whole blood samples were collected within 24 hours, centrifuged at 3000 g for 15 minutes, and the supernatant was separated to obtain plasma samples, and the proteins were precipitated by adding acetonitrile solution containing internal standard; the mixture was well mixed and centrifuged, and the supernatant was injected for quantitative analysis of plasma drug concentrations by LC-MS/MS analysis method, and pharmacokinetic parameters were calculated, such as peak concentration (Cmax), clearance rate (CL), half-life (T1/2), […] (Vdss), area under the drug-time curve (AUC0-last), bioavailability (F), etc.

ROCK1 = ROCK1 (Homo sapiens, UniProt Q13464); experiment: In vitro evaluation of ROCK protein kinase inhibitory activity (33P-ATP filter-binding), ROCK1; type: biochemical; details: 1 nM kinase, 20 μM Long S6 Kinase substrate peptide, 2 hours room temperature
Chain of ROCK1 (Q13464 whole entry): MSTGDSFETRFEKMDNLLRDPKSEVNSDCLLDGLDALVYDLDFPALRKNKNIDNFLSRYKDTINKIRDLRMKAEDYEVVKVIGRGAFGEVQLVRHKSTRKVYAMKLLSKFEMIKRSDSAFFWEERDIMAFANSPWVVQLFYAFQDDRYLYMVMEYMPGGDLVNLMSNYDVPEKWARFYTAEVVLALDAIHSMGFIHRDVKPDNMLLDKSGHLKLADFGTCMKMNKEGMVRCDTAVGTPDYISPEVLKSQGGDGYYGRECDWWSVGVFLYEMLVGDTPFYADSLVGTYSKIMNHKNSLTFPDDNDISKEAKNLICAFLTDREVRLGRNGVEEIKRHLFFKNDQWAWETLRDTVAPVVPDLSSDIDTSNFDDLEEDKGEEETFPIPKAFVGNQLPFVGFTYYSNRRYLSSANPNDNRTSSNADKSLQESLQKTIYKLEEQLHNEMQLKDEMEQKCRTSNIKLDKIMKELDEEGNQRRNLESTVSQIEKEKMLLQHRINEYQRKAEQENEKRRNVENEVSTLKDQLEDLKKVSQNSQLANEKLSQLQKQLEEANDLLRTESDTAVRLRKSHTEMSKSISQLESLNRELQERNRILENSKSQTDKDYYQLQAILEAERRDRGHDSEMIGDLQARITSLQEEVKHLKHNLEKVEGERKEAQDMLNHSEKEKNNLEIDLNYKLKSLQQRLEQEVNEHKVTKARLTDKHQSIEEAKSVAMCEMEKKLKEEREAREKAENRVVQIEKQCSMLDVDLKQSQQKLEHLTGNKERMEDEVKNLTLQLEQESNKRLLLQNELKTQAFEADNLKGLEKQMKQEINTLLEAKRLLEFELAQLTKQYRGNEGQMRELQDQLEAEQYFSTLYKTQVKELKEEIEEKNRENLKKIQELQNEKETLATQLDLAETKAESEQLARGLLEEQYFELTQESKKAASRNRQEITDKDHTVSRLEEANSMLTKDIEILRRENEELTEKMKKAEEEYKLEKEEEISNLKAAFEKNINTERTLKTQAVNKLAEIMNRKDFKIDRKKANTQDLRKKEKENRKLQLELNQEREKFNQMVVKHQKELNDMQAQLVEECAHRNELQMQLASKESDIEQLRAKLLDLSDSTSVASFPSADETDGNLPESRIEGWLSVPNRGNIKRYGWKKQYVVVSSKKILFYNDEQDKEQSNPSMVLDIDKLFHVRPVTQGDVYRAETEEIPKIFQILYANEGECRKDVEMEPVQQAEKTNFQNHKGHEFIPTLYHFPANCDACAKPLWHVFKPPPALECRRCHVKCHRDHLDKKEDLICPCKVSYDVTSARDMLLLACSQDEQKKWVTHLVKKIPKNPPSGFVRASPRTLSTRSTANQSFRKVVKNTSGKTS
Method: (§1) 1. In Vitro Evaluation of ROCK Protein Kinase Inhibitory Activity
(§2) Experimental purpose: To detect the IC50 value of ROCK protein kinase inhibition of compounds.
(§3) Experimental materials: assay buffer solution: 20 mM 4-hydroxyethyl piperazine ethanesulfonic acid (pH 7.5), 10 mM magnesium chloride, 1 mM ethylene glycol diethyl ether diaminetetraacetic acid, 0.02% polyoxyethylene lauryl ether, 0.02 mg/mL bovine serum albumin, 0.1 mM sodium vanadate, 2 mM dithiothreitol, 1% DMSO.
Experimental operation: ROCK protein kinase substrate Long S6 Kinase substrate peptide was added to a freshly prepared buffer solution at a concentration of 20 μM, then 1 nM ROCK protein kinase was added, and the mixture was stirred evenly. A series of DMSO diluents containing the compounds to be tested were added with Echo550 (started at […], diluted by 3 times series), preincubated at room temperature for 20 minutes, and ^33P-ATP (radiation intensity 10 μCi/μL) was added to initiate the reaction, and the reaction was carried out for 2 hours at room temperature. […] Radiation intensity was detected using the Filter-Binding method.
(§4) The protein kinase inhibitory activity of the compound was expressed as the residual protein kinase activity relative to the blank substrate (DMSO alone). IC50 values and curves were calculated using the Prism software package (GraphPad Software, San Diego Calif., USA).

ROCK2 = ROCK2 (Homo sapiens, UniProt O75116); experiment: In vitro evaluation of ROCK protein kinase inhibitory activity (33P-ATP filter-binding), ROCK2; type: biochemical
Chain of ROCK2 (O75116 whole entry): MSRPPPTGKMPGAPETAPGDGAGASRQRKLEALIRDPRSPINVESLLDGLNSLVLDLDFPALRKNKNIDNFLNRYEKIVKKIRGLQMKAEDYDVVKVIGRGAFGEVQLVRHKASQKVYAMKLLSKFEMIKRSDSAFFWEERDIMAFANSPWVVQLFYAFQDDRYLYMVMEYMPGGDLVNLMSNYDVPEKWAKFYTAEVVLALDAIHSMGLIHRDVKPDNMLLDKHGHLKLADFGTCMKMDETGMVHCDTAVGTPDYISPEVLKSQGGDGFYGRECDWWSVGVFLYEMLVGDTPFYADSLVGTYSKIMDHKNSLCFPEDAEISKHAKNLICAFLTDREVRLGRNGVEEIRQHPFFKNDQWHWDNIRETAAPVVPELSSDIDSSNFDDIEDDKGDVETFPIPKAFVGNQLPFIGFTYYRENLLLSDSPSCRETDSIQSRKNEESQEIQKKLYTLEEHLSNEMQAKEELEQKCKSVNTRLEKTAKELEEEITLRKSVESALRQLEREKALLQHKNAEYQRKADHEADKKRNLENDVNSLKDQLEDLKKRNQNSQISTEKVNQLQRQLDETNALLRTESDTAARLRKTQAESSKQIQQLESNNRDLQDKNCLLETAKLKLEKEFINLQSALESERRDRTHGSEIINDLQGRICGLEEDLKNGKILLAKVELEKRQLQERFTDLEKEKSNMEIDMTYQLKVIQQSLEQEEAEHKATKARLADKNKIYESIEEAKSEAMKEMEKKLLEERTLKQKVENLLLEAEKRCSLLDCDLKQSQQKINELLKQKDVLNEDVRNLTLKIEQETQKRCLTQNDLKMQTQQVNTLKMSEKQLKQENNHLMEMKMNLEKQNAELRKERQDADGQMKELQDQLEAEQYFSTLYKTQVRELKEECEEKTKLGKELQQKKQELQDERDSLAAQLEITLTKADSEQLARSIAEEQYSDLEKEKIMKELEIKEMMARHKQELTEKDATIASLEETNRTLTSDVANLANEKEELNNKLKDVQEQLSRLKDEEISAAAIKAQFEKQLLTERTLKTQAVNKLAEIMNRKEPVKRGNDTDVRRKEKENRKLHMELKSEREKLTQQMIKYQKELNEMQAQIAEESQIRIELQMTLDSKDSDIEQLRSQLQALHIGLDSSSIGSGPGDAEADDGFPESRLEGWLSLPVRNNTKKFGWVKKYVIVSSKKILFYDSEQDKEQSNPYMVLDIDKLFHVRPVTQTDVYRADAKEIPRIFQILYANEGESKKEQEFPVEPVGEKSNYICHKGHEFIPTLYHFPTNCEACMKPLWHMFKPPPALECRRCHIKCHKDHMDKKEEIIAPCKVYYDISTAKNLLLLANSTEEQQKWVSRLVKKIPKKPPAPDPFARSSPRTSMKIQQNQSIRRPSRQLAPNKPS
Method: as §1, §2, §3
Experimental operation: ROCK protein kinase substrate Long S6 Kinase substrate peptide was added to a freshly prepared buffer solution at a concentration of 20 μM, then 1 nM ROCK protein kinase was added, and the mixture was stirred evenly. A series of DMSO diluents containing the compounds to be tested were added with Echo550 (started at […], diluted by 3 times series), preincubated at room temperature for 20 minutes, and ^33P-ATP (radiation intensity 10 μCi/μL) was added to initiate the reaction, and the reaction was carried out for 2 hours at room temperature. The mixture was then filtered using P81 ion exchange paper (Whatman #3698-915) and washed with 0.75% phosphoric acid. Radiation intensity was detected using the Filter-Binding method.
as §4

Question: Which Crystal form ([1]; 0 day) does the source give for `CC(=O)O.COc1cccc(C(CN)NC(=O)c2cc(-c3ccc4[nH]nc(C)c4c3)ccn2)c1` (centres unmarked) here?
Answer: Its Crystal form is “Crystal form B”.

Question: And the Crystal form ([1]; High humidity (relative humidity 75%, open), 5 days)?
Answer: The Crystal form was “Crystal form B”.

Question: And the Crystal form ([1]; High humidity (relative humidity 75%, open), 10 days)?
Answer: The Crystal form was “Crystal form B”.

Question: And the Crystal form ([1]; High humidity (relative humidity 92.5%, open), 5 days)?
Answer: Its Crystal form is “Crystal form B”.

Question: What about the Crystal form ([1]; High humidity (relative humidity 92.5%, open), 10 days) of the same compound?
Answer: Its Crystal form is “Crystal form B”.

Question: And the Crystal form ([1]; High temperature (60° C., open), 5 days)?
Answer: Its Crystal form is “Crystal form B”.

Question: What about the Crystal form ([1]; High temperature (60° C., open), 10 days) of the same compound?
Answer: The Crystal form was “Crystal form B”.

Question: And the Crystal form ([1]; High temperature and humidity (40° C. relative humidity 75%, open), first entry, 5 days)?
Answer: Its Crystal form is “Crystal form B”.

Question: What about the Crystal form ([1]; High temperature and humidity (40° C. relative humidity 75%, open), first entry, 10 days) of the same compound?
Answer: The Crystal form was “Crystal form B”.

Question: And the Crystal form ([1]; High temperature and humidity (40° C. relative humidity 75%, open), second entry, 5 days)?
Answer: The Crystal form was “Crystal form B”.

Question: And the Crystal form ([1]; High temperature and humidity (40° C. relative humidity 75%, open), second entry, 10 days)?
Answer: The Crystal form was “Crystal form B”.

Question: What about the Crystal form ([1]; Illumination (total illuminance = 1.2 × 10^6 Lux·hr/near UV = 200 w·hr/m^2, open), 5 days) of the same compound?
Answer: The Crystal form was “Crystal form B”.

Question: What about the Crystal form ([1]; Illumination (total illuminance = 1.2 × 10^6 Lux·hr/near UV = 200 w·hr/m^2, open), 10 days) of the same compound?
Answer: Its Crystal form is “Crystal form B”.

Question: What about the “solid stability (conclusion in words)” value ([1]; high temperature, high humidity and strong illumination conditions) of the same compound?
Answer: The value was “good stability”.

Question: With `COc1cccc(C(CN)NC(=O)c2cc(-c3ccc4[nH]nc(C)c4c3)ccn2)c1` (racemic) [Racemate of compound of formula (I)] as the compound, how does the “pharmacokinetic properties (conclusion in words)” value [2] read?
Answer: Its value is “good pharmacokinetic properties”.

Question: And the Vd ([2]; rat, plasma, male, IV 1 mg/kg, read-out: Tissue distribution Vdss)?
Answer: Its Vd is 6 L/kg.

Question: With `COc1cccc([C@@H](CN)NC(=O)c2cc(-c3ccc4[nH]nc(C)c4c3)ccn2)c1` [Compound of formula (II)] as the compound, how does the IC50 (ROCK1) read?
Answer: The IC50 was 13 nM.

Question: And the “inhibitory activity against ROCK2 (conclusion in words)” value (ROCK2)?
Answer: Its value is “good inhibitory activity”.

Question: What about the IC50 (ROCK2; 1 nM kinase, 20 μM Long S6 Kinase substrate peptide, 33P-ATP, 2 hours room temperature) of the same compound?
Answer: The IC50 was 2 nM.

Question: And the “selectivity for ROCK2 (conclusion in words)” value (ROCK2; ROCK2 versus ROCK1)?
Answer: The value was “some selectivity”.
